ChEMBL document CHEMBL4033729, “Penicillospirone from a marine isolate of Penicillium sp. (SF-5292) with anti-inflammatory activity” (Bioorg Med Chem Lett, 2017)
Active and inactive are the calls of the source. No cut-off for these calls is given here.

Assays:
BV-2 [1] = assay: Cytotoxicity in mouse BV2 cells at 10 to 80 uM by MTT assay; format: cell-based; conditions: bv-2, 80 µM
Mus musculus [2] = species on record: Mus musculus; assay: Inhibition of LPS-stimulated NFkappaB signalling activation in mouse BV2 cells assessed as reduction in IkappaB phosphorylation pre-incubated for 3 hrs before LPS-stimulation for 60 mins by Western blot method; format: cell-based
BV-2 [3] = assay: Anti-inflammatory activity in mouse BV2 cells assessed as reduction in LPS-induced TNFalpha mRNA expression pre-incubated for 3 hrs before LPS-stimulation for 12 hrs by RT-qPCR method; format: functional, cell-based
BV-2 [4] = assay: Inhibition of LPS-stimulated iNOS protein expression in mouse BV2 cells pre-incubated for 3 hrs before LPS-stimulation for 24 hrs by Western blot method; format: functional, cell-based
BV-2 [5] = assay: Anti-inflammatory activity in mouse BV2 cells assessed as reduction in LPS-induced IL6 mRNA expression pre-incubated for 3 hrs before LPS-stimulation for 12 hrs by RT-qPCR method; format: functional, cell-based
Mus musculus [6] = species on record: Mus musculus; assay: Inhibition of LPS-stimulated NFkappaB p65/p50 nuclear translocation in mouse RAW264.7 cells assessed as increase in cytosolic p65/p50 protein level at 10 to 40 uM pre-incubated for 3 hrs before LPS-stimulation for 60 mins by Western blot method; format: cell-based
Mus musculus [7] = species on record: Mus musculus; assay: Inhibition of LPS-stimulated NFkappaB DNA binding activity in mouse RAW264.7 cells assessed pre-incubated for 3 hrs before LPS-stimulation for 60 mins by ELISA; format: cell-based
RAW264.7 [8] = assay: Inhibition of LPS-stimulated iNOS protein expression in mouse RAW264.7 cells pre-incubated for 3 hrs before LPS-stimulation for 24 hrs by Western blot method; format: functional, cell-based
RAW264.7 [9] = assay: Inhibition of LPS-stimulated COX2 protein expression in mouse RAW264.7 cells pre-incubated for 3 hrs before LPS-stimulation for 24 hrs by Western blot method; format: functional, cell-based
BV-2 [10] = assay: Anti-inflammatory activity in mouse BV2 cells assessed as reduction in LPS-induced PGE2 production pre-incubated for 3 hrs before LPS-stimulation for 24 hrs; format: functional, cell-based
RAW264.7 [11] = assay: Anti-inflammatory activity in mouse RAW264.7 cells assessed as reduction in LPS-induced IL12 mRNA expression pre-incubated for 3 hrs before LPS-stimulation for 12 hrs by RT-qPCR method; format: functional, cell-based
Mus musculus [12] = species on record: Mus musculus; assay: Inhibition of LPS-stimulated NFkappaB signalling activation in mouse RAW264.7 cells assessed as reduction in IkappaB phosphorylation pre-incubated for 3 hrs before LPS-stimulation for 60 mins by Western blot method; format: cell-based
BV-2 [13] = assay: Anti-inflammatory activity in mouse BV2 cells assessed as reduction in LPS-induced IL-1beta mRNA expression pre-incubated for 3 hrs before LPS-stimulation for 12 hrs by RT-qPCR method; format: functional, cell-based
RAW264.7 [14] = assay: Anti-inflammatory activity in mouse RAW264.7 cells assessed as reduction in LPS-induced IL6 mRNA expression pre-incubated for 3 hrs before LPS-stimulation for 12 hrs by RT-qPCR method; format: functional, cell-based
RAW264.7 [15] = assay: Anti-inflammatory activity in mouse RAW264.7 cells assessed as reduction in LPS-induced PGE2 production pre-incubated for 3 hrs before LPS-stimulation for 24 hrs; format: functional, cell-based
BV-2 [16] = assay: Anti-inflammatory activity in mouse BV2 cells assessed as reduction in LPS-induced nitric oxide production pre-incubated for 3 hrs before LPS-stimulation for 24 hrs by Griess reagent based ELISA; format: functional, cell-based
BV-2 [17] = assay: Inhibition of LPS-stimulated COX2 protein expression in mouse BV2 cells pre-incubated for 3 hrs before LPS-stimulation for 24 hrs by Western blot method; format: functional, cell-based
RAW264.7 [18] = assay: Anti-inflammatory activity in mouse RAW264.7 cells assessed as reduction in LPS-induced IL-1beta mRNA expression pre-incubated for 3 hrs before LPS-stimulation for 12 hrs by RT-qPCR method; format: functional, cell-based
RAW264.7 [19] = assay: Cytotoxicity in mouse RAW264.7 cells at 10 to 80 uM by MTT assay; format: cell-based; conditions: raw264.7, 80 µM
BV-2 [20] = assay: Anti-inflammatory activity in mouse BV2 cells assessed as reduction in LPS-induced IL12 mRNA expression pre-incubated for 3 hrs before LPS-stimulation for 12 hrs by RT-qPCR method; format: functional, cell-based
RAW264.7 [21] = assay: Anti-inflammatory activity in mouse RAW264.7 cells assessed as reduction in LPS-induced nitric oxide production pre-incubated for 3 hrs before LPS-stimulation for 24 hrs by Griess reagent based ELISA; format: functional, cell-based
Mus musculus [22] = species on record: Mus musculus; assay: Inhibition of LPS-stimulated NFkappaB p65/p50 nuclear translocation in mouse BV2 cells assessed as increase in cytosolic p65/p50 protein level at 10 to 40 uM pre-incubated for 3 hrs before LPS-stimulation for 60 mins by Western blot method; format: cell-based
RAW264.7 [23] = assay: Anti-inflammatory activity in mouse RAW264.7 cells assessed as reduction in LPS-induced TNFalpha mRNA expression pre-incubated for 3 hrs before LPS-stimulation for 12 hrs by RT-qPCR method; format: functional, cell-based
Mus musculus [24] = species on record: Mus musculus; assay: Inhibition of LPS-stimulated NFkappaB DNA binding activity in mouse BV2 cells assessed pre-incubated for 3 hrs before LPS-stimulation for 60 mins by ELISA; format: cell-based

C/C=C/[C@@H]1C=CC(=O)[C@H](O)[C@]12C(=O)O[C@H](C)[C@@H]2O
Activity (BV-2 [1]): Non-Toxic | inhibition (Mus musculus [2]): Dose-dependent effect | inhibition (BV-2 [3]): Dose-dependent effect | inhibition (BV-2 [4]): Dose-dependent effect | inhibition (BV-2 [5]): Dose-dependent effect | inhibition (Mus musculus [6]): Active | inhibition (Mus musculus [7]): Dose-dependent effect | inhibition (RAW264.7 [8]): Dose-dependent effect | inhibition (RAW264.7 [9]): Dose-dependent effect | IC50 (BV-2 [10]): 27.6 µM | inhibition (RAW264.7 [11]): Dose-dependent effect | inhibition (Mus musculus [12]): Dose-dependent effect | inhibition (BV-2 [13]): Dose-dependent effect | inhibition (RAW264.7 [14]): Dose-dependent effect | IC50 (RAW264.7 [15]): 22.8 µM | IC50 (BV-2 [16]): 21.9 µM | inhibition (BV-2 [16]): Dose-dependent effect | inhibition (BV-2 [17]): Dose-dependent effect | inhibition (RAW264.7 [18]): Dose-dependent effect | Activity (RAW264.7 [19]): Non-Toxic | inhibition (BV-2 [20]): Dose-dependent effect | IC50 (RAW264.7 [21]): 23.5 µM | inhibition (RAW264.7 [21]): Dose-dependent effect | inhibition (Mus musculus [22]): Active | inhibition (RAW264.7 [23]): Dose-dependent effect | inhibition (Mus musculus [24]): Dose-dependent effect
